Experimental data published in US20090176817A1, “Method of Treatment of Diarrhea-Predominant Irritable Bowel Syndrome in a Subject” (priority 2005, published 2009).
Marks after values point to notes of the source that are not given here.

Key:
[1] = Study S.241.1.110: pharmacokinetics in renal impairment, 2 mg TID; details: for AUC(0-τ) / Cmax / T½ / Tmax / Cmin: cilansetron 2 mg TID; for AUC(0-τ) / Cmax / T½ / Cmin: mean (%CV); for Tmax: median; for Cmin: Day 6 morning predose value
Protocol: The effect of renal impairment on the pharmacokinetics of cilansetron was evaluated in a study excluding subjects with end-stage renal disease, and utilizing a single-center, open-label, multiple-dose, parallel group study in 13 male and 9 female subjects, aged 33-74 years. […] Healthy subjects were matched to renally-impaired subjects with respect to age, weight, gender, and smoking status. All subjects received oral cilansetron 2 mg TID on Days 1 to 5, and a single dose on the morning of Day 6. Blood samples for measurement of plasma pharmacokinetics of cilansetron and its 4-hydroxy metabolites were collected up to 24 hours following dosing on Day 6, and log-transformed pharmacokinetic parameters for these analytes were statistically compared between study groups. Serum concentrations of unbound cilansetron and its 4-hydroxy metabolites were also measured prior to dosing and at 1 and 1.5 hours postdose on Day 6.

[2] = Study S.241.1.107: pharmacokinetics in hepatic impairment, 8 mg TID; details: for AUC(0-τ): AUC(0-8); for AUC(0-τ) / Cmax / T½: arith. mean (%CV); for Tmax: median
Protocol: The effect of hepatic impairment on the pharmacokinetics of cilansetron was evaluated in a multiple-dose, parallel group study in 14 healthy and 14 moderately to severely hepatically impaired male and female subjects, aged 41-70 years. Impaired subjects (Child-Pugh score 7 to 11) were matched to healthy subjects by age (±2 years), sex, menstrual status, and smoking history status. All subjects received oral cilansetron 8 mg TID on Days 1 to 5, and a single dose on the morning of Day 6. […] Blood samples were also collected at predose on Day 1, and at predose, 1 hour and 1.5 hours postdose on Day 6, for measurement of cilansetron protein binding in serum.

[3] = Study S.241.1.110: ex vivo protein binding in serum, healthy and renally impaired; details: for Fraction unbound ratio All Renal Groups Combined:Healthy / Fraction unbound ratio Mild:Healthy / Fraction unbound ratio Moderate:Healthy / Fraction unbound ratio Severe:Healthy: ratio (90% CI)
Protocol: The ex vivo protein binding of cilansetron and its 4-hydroxy metabolites has been measured in serum samples collected in a multiple-dose study in healthy and renally impaired male and female subjects, aged 33-74 years. […] Healthy subjects were matched to renally-impaired subjects with respect to age, weight, gender, and smoking status. All subjects received oral cilansetron 2 mg TID on Days 1 to 5, and a single dose on the morning of Day 6.

[4] = moderate renal impairment, Day 6
[5] = geometric LS mean ratio impaired/healthy, cilansetron 8 mg TID oral
[6] = healthy, cilansetron 8 mg TID oral
[7] = hepatically impaired, cilansetron 8 mg TID oral

## Cc1nccn1CC1CCc2c(c3cccc4c3n2CC[C@H]4O)C1=O (stereo partly drawn) [(4R)-hydroxy cilansetron]
[1]; Day 6 1 h, Healthy
  Plasma Conc.: 3.90 (37) ng/mL
[1]; Day 6 1 h, Mild
  Plasma Conc.: 4.86 (39) ng/mL
[1]; Day 6 1 h, Moderate
  Plasma Conc.: 3.94 (32) ng/mL
[1]; Day 6 1 h, Severe
  Plasma Conc.: 7.67 (38) ng/mL
[1]; Day 6, geometric LS mean ratio (90% CI)
  AUC(0-τ) ratio Mild/Healthy: 118 (90, 153) %
[1]; Day 6, ratio (90% CI)
  AUC(0-τ) ratio Moderate/Healthy: 137 (104, 182) %
  AUC(0-τ) ratio Renal Combined/Healthy: 166 (136, 204)* %
  AUC(0-τ) ratio Severe/Healthy: 284 (215, 377)* %
  Cmax ratio Mild/Healthy: 134 (101, 177) %
  Cmax ratio Moderate/Healthy: 137 (102, 185) %
  Cmax ratio Renal Combined/Healthy: 158 (127, 196)* %
  Cmax ratio Severe/Healthy: 215 (159, 290)* %
  T½ ratio Mild/Healthy: 109 (84, 142) %
  T½ ratio Moderate/Healthy: 129 (97, 171) %
  T½ ratio Renal Combined/Healthy: 140 (114, 172)* %
  T½ ratio Severe/Healthy: 195 (147, 259)* %
[1]; Day 6 […], Healthy
  Plasma Conc.: 3.79 (20) ng/mL
[1]; Day 6 […], Mild
  Plasma Conc.: 3.86 (20) ng/mL
[1]; Day 6 […], Moderate
  Plasma Conc.: 4.75 (28) ng/mL
[1]; Day 6 […], Severe
  Plasma Conc.: 7.87 (38) ng/mL
[1]; healthy subjects, Day 6
  AUC(0-τ): 18.7 (21) ng · h/mL
  Cmax: 4.30 (33) ng/mL
  T½: 7.05 (21) h
  Tmax: 1.25 h
[1]; healthy subjects
  Cmin: 1.56 (24) ng/mL
[1]; in vivo
  Exposure increase with severe renal impairment: 2-3 fold
[1]; mild impairment
  Mean AUC(0-τ) increase vs healthy: 18%
  Mean Cmax increase vs healthy: 34%
[1]; mild renal impairment, Day 6
  AUC(0-τ): 21.6 (9) ng · h/mL
  Cmax: 5.66 (25) ng/mL
  T½: 7.93 (38) h
  Tmax: 1.25 h
[1]; mild renal impairment
  Cmin: 1.68 (24) ng/mL
[1]; moderate impairment
  Mean AUC(0-τ) increase vs healthy: 37%
  Mean Cmax increase vs healthy: 37%
[1]; [4]
  AUC(0-τ): 26.3 (34) ng · h/mL
  Cmax: 5.83 (28) ng/mL
  T½: 9.32 (36) h
  Tmax: 1.25 h
[1]; moderate renal impairment
  Cmin: 2.06 (40) ng/mL
[1]; severe impairment
  Mean AUC(0-τ) increase vs healthy: 184%
  Mean Cmax increase vs healthy: 115%
[1]; severe renal impairment, Day 6
  AUC(0-τ): 55.8 (45) ng · h/mL
  Cmax: 9.35 (39) ng/mL
  T½: 13.9 (30) h
  Tmax: 1.50 h
[1]; severe renal impairment
  Cmin: 4.36 (36) ng/mL
[2]; [5]
  AUC(0-τ) Ratio: 0.86
  Cmax Ratio: 0.70
[2]; [6]
  AUC(0-τ), Geom. LS Mean: 57.4 ng·h/mL
  Cmax, Geom. LS Mean: 13.2 ng/mL
  AUC(0-τ): 62.7 (32) ng · h/mL
  Cmax: 14.1 (28) ng/mL
  T½: 6.38 (18) h
  Tmax: 1.00 h
[2]; [7]
  AUC(0-τ), Geom. LS Mean: 49.4 ng·h/mL
  Cmax, Geom. LS Mean: 9.30 ng/mL
  AUC(0-τ): 53.7 (40) ng · h/mL
  Cmax: 11.1 (62) ng/mL
  T½: 10.0 (41) h
  Tmax: 1.50 h
[2]; in vivo
  AUC(0-τ) decrease with hepatic impairment: 14%
  Cmax decrease with hepatic impairment: 30%
[3]; 1 h
  Fraction unbound ratio All Renal Groups Combined:Healthy: 121 (109, 134)^b %
  Fraction unbound ratio Mild:Healthy: 106 (93, 121) %
  Fraction unbound ratio Moderate:Healthy: 137 (119, 157)^b %
  Fraction unbound ratio Severe:Healthy: 121 (105, 140)^b %
[3]; Day 6 1 h, Healthy
  Fraction Unbound in Serum: 24.7 (7) %
[3]; Day 6 1 h, Mild
  Fraction Unbound in Serum: 26.4 (14) %
[3]; Day 6 1 h, Moderate
  Fraction Unbound in Serum: 34.3 (22) %
[3]; Day 6 1 h, Severe
  Fraction Unbound in Serum: 30.2 (18) %
[3]; Day 6 […], Healthy
  Fraction Unbound in Serum: 27.6 (15) %
[3]; Day 6 […], Mild
  Fraction Unbound in Serum: 26.2 (17) %
[3]; Day 6 […], Moderate
  Fraction Unbound in Serum: 28.5 (13) %
[3]; Day 6 […], Severe
  Fraction Unbound in Serum: 23.7 (11) %
[3]; Day 6 predose, Healthy
  Fraction Unbound in Serum: 25.3 (11) %
[3]; Day 6 predose, Mild
  Fraction Unbound in Serum: 29.6 (30) %
[3]; Day 6 predose, Moderate
  Fraction Unbound in Serum: 31.0 (21) %
[3]; Day 6 predose, Severe
  Fraction Unbound in Serum: 32.4 (17) %
[3]; […]
  Fraction unbound ratio All Renal Groups Combined:Healthy: 95 (85, 105) %
  Fraction unbound ratio Mild:Healthy: 95 (83, 109) %
  Fraction unbound ratio Moderate:Healthy: 104 (90, 120) %
  Fraction unbound ratio Severe:Healthy: 86 (74, 100) %
[3]; healthy subjects
  Protein bound on average: 72.4-75.3%
[3]; predose
  Fraction unbound ratio All Renal Groups Combined:Healthy: 121 (105, 139)^b %
  Fraction unbound ratio Mild:Healthy: 114 (96, 137) %
  Fraction unbound ratio Moderate:Healthy: 122 (100, 147) %
  Fraction unbound ratio Severe:Healthy: 128 (105, 155)^b %
[3]; therapeutic concentration range
  Plasma protein bound: 72-75%
